Tested on: HOP-62 multicell spheroids with HUVEC/MSC, viability
Test: Anticancer human tumor HOP-62 cell line growth inhibition [KRAS2];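 further: viability read after a week of compound exposure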;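 on viability, T/C: 100% = DMSO vehicle-treated spheroids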
Conditions: for IC50: curve of first compound; for viability, T/C: stronger effect = lower value
Outline: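 KRAS-mutant tumor cells were grown as spheroids with HUVEC endothelial cells and human MSCs as stroma. Targeted agents were tested alone and with KRAS pathway inhibitors. Doses started at or near clinical Cmax, or 10 microM, descending half-log.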

[1] = second compound 0.1 µM, first compound 0.000316 µM
[2] = second compound 0.1 µM, first compound 0.001 µM
[3] = second compound 0.1 µM, first compound 0.00316 µM
[4] = second compound 0.1 µM, first compound 0.01 µM
[5] = second compound 0.1 µM, first compound 0.0316 µM
[6] = second compound 0.316 µM, first compound 0.000316 µM
[7] = second compound 0.316 µM, first compound 0.001 µM
[8] = second compound 0.316 µM, first compound 0.00316 µM
[9] = second compound 0.316 µM, first compound 0.01 µM
[10] = second compound 0.316 µM, first compound 0.0316 µM
[11] = second compound 1 µM, first compound 0.000316 µM
[12] = second compound 1 µM, first compound 0.001 µM
[13] = second compound 1 µM, first compound 0.00316 µM
[14] = second compound 1 µM, first compound 0.01 µM
[15] = second compound 1 µM, first compound 0.0316 µM
[16] = second compound 3.16 µM, first compound 0.000316 µM
[17] = second compound 3.16 µM, first compound 0.001 µM
[18] = second compound 3.16 µM, first compound 0.00316 µM
[19] = second compound 3.16 µM, first compound 0.01 µM
[20] = second compound 3.16 µM, first compound 0.0316 µM
[21] = second compound 10 µM, first compound 0.000316 µM
[22] = second compound 10 µM, first compound 0.001 µM
[23] = second compound 10 µM, first compound 0.00316 µM
[24] = second compound 10 µM, first compound 0.01 µM
[25] = second compound 10 µM, first compound 0.0316 µM
[26] = second compound 0.1 µM, first compound 0.1 µM
[27] = second compound 0.316 µM, first compound 0.1 µM
[28] = second compound 1 µM, first compound 0.1 µM
[29] = second compound 3.16 µM, first compound 0.1 µM
[30] = second compound 10 µM, first compound 0.1 µM
[31] = second compound 0.1 µM, first compound 0.316 µM
[32] = second compound 0.1 µM, first compound 1 µM
[33] = second compound 0.1 µM, first compound 3.16 µM
[34] = second compound 0.1 µM, first compound 10 µM
[35] = second compound 0.316 µM, first compound 0.316 µM
[36] = second compound 0.316 µM, first compound 1 µM
[37] = second compound 0.316 µM, first compound 3.16 µM
[38] = second compound 0.316 µM, first compound 10 µM
[39] = second compound 1 µM, first compound 0.316 µM
[40] = second compound 1 µM, first compound 1 µM
[41] = second compound 1 µM, first compound 3.16 µM
[42] = second compound 1 µM, first compound 10 µM
[43] = second compound 3.16 µM, first compound 0.316 µM
[44] = second compound 3.16 µM, first compound 1 µM
[45] = second compound 3.16 µM, first compound 3.16 µM
[46] = second compound 3.16 µM, first compound 10 µM
[47] = second compound 10 µM, first compound 0.316 µM
[48] = second compound 10 µM, first compound 1 µM
[49] = second compound 10 µM, first compound 3.16 µM
[50] = second compound 10 µM, first compound 10 µM

CC(=O)Nc1cccc(-n2c(=O)n(C3CC3)c(=O)c3c(Nc4ccc(I)cc4F)n(C)c(=O)c(C)c32)c1 + COc1cc2nc(C)nc(NC(C)c3cc(N)cc(C(F)(F)F)c3)c2cc1OC1CCOC1
IC50 (second compound 0.1 µM): 0.0025 µM
IC50 (second compound 0.316 µM): 0.00301 µM
IC50 (second compound 1 µM): 0.00201 µM
IC50 (second compound 3.16 µM): 0.000494 µM
IC50 (second compound 10 µM): < 0.0001 µM
viability, T/C (second compound 0.1 µM, first compound 0.0001 µM): 111%
viability, T/C [1]: 79%
viability, T/C [2]: 77.8%
viability, T/C [3]: 42.5%
viability, T/C [4]: 25.5%
viability, T/C [5]: 23.8%
viability, T/C (second compound 0.316 µM, first compound 0.0001 µM): 85.2%
viability, T/C [6]: 91.4%
viability, T/C [7]: 79.9%
viability, T/C [8]: 49.2%
viability, T/C [9]: 24.9%
viability, T/C [10]: 24.5%
viability, T/C (second compound 1 µM, first compound 0.0001 µM): 84.1%
viability, T/C [11]: 75.8%
viability, T/C [12]: 75.5%
viability, T/C [13]: 33.6%
viability, T/C [14]: 24.9%
viability, T/C [15]: 25.2%
viability, T/C (second compound 3.16 µM, first compound 0.0001 µM): 58.1%
viability, T/C [16]: 50.5%
viability, T/C [17]: 45.8%
viability, T/C [18]: 29.2%
viability, T/C [19]: 21.9%
viability, T/C [20]: 22.7%
viability, T/C (second compound 10 µM, first compound 0.0001 µM): 39.6%
viability, T/C [21]: 33.7%
viability, T/C [22]: 31.4%
viability, T/C [23]: 27.8%
viability, T/C [24]: 25.3%
viability, T/C [25]: 22.1%

CN(C)C/C=C/C(=O)Nc1cc2c(Nc3ccc(F)c(Cl)c3)ncnc2cc1O[C@H]1CCOC1 + COc1cc2nc(C)nc(NC(C)c3cc(N)cc(C(F)(F)F)c3)c2cc1OC1CCOC1
IC50 (second compound 0.1 µM): > 0.1 µM
IC50 (second compound 0.316 µM): > 0.1 µM
IC50 (second compound 1 µM): > 0.1 µM
IC50 (second compound 3.16 µM): > 0.1 µM
IC50 (second compound 10 µM): > 0.1 µM
viability, T/C [1]: 105%
viability, T/C [2]: 109%
viability, T/C [3]: 105%
viability, T/C [4]: 107%
viability, T/C [5]: 105%
viability, T/C [26]: 97%
viability, T/C [6]: 115%
viability, T/C [7]: 107%
viability, T/C [8]: 112%
viability, T/C [9]: 96.7%
viability, T/C [10]: 100%
viability, T/C [27]: 97.7%
viability, T/C [11]: 107%
viability, T/C [12]: 102%
viability, T/C [13]: 114%
viability, T/C [14]: 106%
viability, T/C [15]: 101%
viability, T/C [28]: 111%
viability, T/C [16]: 72.3%
viability, T/C [17]: 64.1%
viability, T/C [18]: 70%
viability, T/C [19]: 64.2%
viability, T/C [20]: 59.8%
viability, T/C [29]: 64.3%
viability, T/C [21]: 73.7%
viability, T/C [22]: 51.6%
viability, T/C [23]: 49.6%
viability, T/C [24]: 62.7%
viability, T/C [25]: 59.9%
viability, T/C [30]: 70.8%

COC(=O)c1ccc2c(C(=Nc3ccc(N(C)C(=O)CN4CCN(C)CC4)cc3)c3ccccc3)c(O)[nH]c2c1 + COc1cc2nc(C)nc(NC(C)c3cc(N)cc(C(F)(F)F)c3)c2cc1OC1CCOC1
IC50 (second compound 0.1 µM): 0.797 µM
IC50 (second compound 0.316 µM): 0.325 µM
IC50 (second compound 1 µM): 0.0522 µM
IC50 (second compound 3.16 µM): < 0.0316 µM
IC50 (second compound 10 µM): < 0.0316 µM
viability, T/C [5]: 98.5%
viability, T/C [26]: 85.7%
viability, T/C [31]: 53%
viability, T/C [32]: 50.9%
viability, T/C [33]: 34.9%
viability, T/C [34]: 10.4%
viability, T/C [10]: 67%
viability, T/C [27]: 57.1%
viability, T/C [35]: 51.5%
viability, T/C [36]: 25.5%
viability, T/C [37]: 26.3%
viability, T/C [38]: 20.8%
viability, T/C [15]: 54%
viability, T/C [28]: 46.1%
viability, T/C [39]: 33.4%
viability, T/C [40]: 28.7%
viability, T/C [41]: 26.7%
viability, T/C [42]: 16.2%
viability, T/C [20]: 45.2%
viability, T/C [29]: 32.6%
viability, T/C [43]: 36.5%
viability, T/C [44]: 24.5%
viability, T/C [45]: 18.9%
viability, T/C [46]: 0.46%
viability, T/C [25]: 39.9%
viability, T/C [30]: 32.6%
viability, T/C [47]: 30.7%
viability, T/C [48]: 24.5%
viability, T/C [49]: 0.7%
viability, T/C [50]: 0.2%

COc1cc(Nc2ncc3c(n2)-c2ccc(Cl)cc2C(c2c(F)cccc2OC)=NC3)ccc1C(=O)O + COc1cc2nc(C)nc(NC(C)c3cc(N)cc(C(F)(F)F)c3)c2cc1OC1CCOC1
IC50 (second compound 0.1 µM): 0.237 µM
IC50 (second compound 0.316 µM): 0.124 µM
IC50 (second compound 1 µM): < 0.0316 µM
IC50 (second compound 3.16 µM): < 0.0316 µM
IC50 (second compound 10 µM): < 0.0316 µM
viability, T/C [5]: 58%
viability, T/C [26]: 61.3%
viability, T/C [31]: 43.1%
viability, T/C [32]: 39.1%
viability, T/C [33]: 25.6%
viability, T/C [34]: 19.1%
viability, T/C [10]: 53.7%
viability, T/C [27]: 50%
viability, T/C [35]: 44%
viability, T/C [36]: 41.8%
viability, T/C [37]: 23.5%
viability, T/C [38]: 16.1%
viability, T/C [15]: 44.8%
viability, T/C [28]: 42.4%
viability, T/C [39]: 35.7%
viability, T/C [40]: 30.5%
viability, T/C [41]: 23.8%
viability, T/C [42]: 16.7%
viability, T/C [20]: 35.5%
viability, T/C [29]: 31.4%
viability, T/C [43]: 28.8%
viability, T/C [44]: 25.1%
viability, T/C [45]: 19.7%
viability, T/C [46]: 13.2%
viability, T/C [25]: 32.8%
viability, T/C [30]: 28.6%
viability, T/C [47]: 30.9%
viability, T/C [48]: 29.1%
viability, T/C [49]: 18%
viability, T/C [50]: 8.97%

COc1cc2nccc(Oc3ccc(NC(=O)C4(C(=O)Nc5ccc(F)cc5)CC4)cc3)c2cc1OC + COc1cc2nc(C)nc(NC(C)c3cc(N)cc(C(F)(F)F)c3)c2cc1OC1CCOC1
IC50 (second compound 0.1 µM): > 10 µM
IC50 (second compound 0.316 µM): > 10 µM
IC50 (second compound 1 µM): > 10 µM
IC50 (second compound 3.16 µM): 0.901 µM
IC50 (second compound 10 µM): 0.235 µM
viability, T/C [5]: 100%
viability, T/C [26]: 113%
viability, T/C [31]: 113%
viability, T/C [32]: 80.8%
viability, T/C [33]: 63.8%
viability, T/C [34]: 123%
viability, T/C [10]: 89.4%
viability, T/C [27]: 114%
viability, T/C [35]: 126%
viability, T/C [36]: 85.8%
viability, T/C [37]: 59.4%
viability, T/C [38]: 114%
viability, T/C [15]: 86.8%
viability, T/C [28]: 92.2%
viability, T/C [39]: 101%
viability, T/C [40]: 55.9%
viability, T/C [41]: 47%
viability, T/C [42]: 97.5%
viability, T/C [20]: 71.8%
viability, T/C [29]: 94.9%
viability, T/C [43]: 81.6%
viability, T/C [44]: 46%
viability, T/C [45]: 0.59%
viability, T/C [46]: 94%
viability, T/C [25]: 54.9%
viability, T/C [30]: 49.1%
viability, T/C [47]: 49.3%
viability, T/C [48]: 24.5%
viability, T/C [49]: 0.58%
viability, T/C [50]: 73%

O=C(c1cc(Cc2n[nH]c(=O)c3ccccc23)ccc1F)N1CCN(C(=O)C2CC2)CC1 + COc1cc2nc(C)nc(NC(C)c3cc(N)cc(C(F)(F)F)c3)c2cc1OC1CCOC1
IC50 (second compound 0.1 µM): > 10 µM
IC50 (second compound 0.316 µM): 7.02 µM
IC50 (second compound 1 µM): > 10 µM
IC50 (second compound 3.16 µM): 4.69 µM
IC50 (second compound 10 µM): 0.0974 µM
viability, T/C [5]: 99.5%
viability, T/C [26]: 102%
viability, T/C [31]: 106%
viability, T/C [32]: 102%
viability, T/C [33]: 85.1%
viability, T/C [34]: 52.7%
viability, T/C [10]: 90.8%
viability, T/C [27]: 85.6%
viability, T/C [35]: 83.3%
viability, T/C [36]: 92.3%
viability, T/C [37]: 67.9%
viability, T/C [38]: 42%
viability, T/C [15]: 102%
viability, T/C [28]: 98.2%
viability, T/C [39]: 93.4%
viability, T/C [40]: 94.6%
viability, T/C [41]: 85.4%
viability, T/C [42]: 50.5%
viability, T/C [20]: 77%
viability, T/C [29]: 61.9%
viability, T/C [43]: 64%
viability, T/C [44]: 69.3%
viability, T/C [45]: 56.3%
viability, T/C [46]: 36.1%
viability, T/C [25]: 97.5%
viability, T/C [30]: 45.3%
viability, T/C [47]: 55.5%
viability, T/C [48]: 60.9%
viability, T/C [49]: 47%
viability, T/C [50]: 35.1%

Reference: PubChem BioAssay AID1963858 (Molecular Pharmacology Branch, DTP, NCI, 2024)
